Laboratory results reported in patent US10214546B2, “Btk inhibitors” (MERCK SHARP & DOHME CORP., priority 2014, dated 2019).
Read-outs that look alike come from different tables or passages of the source.

Experiments:
[1] = target: BTK enzyme (recombinant full-length BTK, hBTK) (Homo sapiens (Human), UniProt Q06187); assay: BTK enzymatic activity LANCE TR-FRET assay; assay type: biochemical; conditions: 50 pM hBTK, 25 μM ATP, 2 μM biotin-A5-peptide; compound range 1 μM to 0.017 nM; read-out: BTK binding IC50
Sequence of BTK enzyme (recombinant full-length BTK, hBTK) (Q06187 whole entry): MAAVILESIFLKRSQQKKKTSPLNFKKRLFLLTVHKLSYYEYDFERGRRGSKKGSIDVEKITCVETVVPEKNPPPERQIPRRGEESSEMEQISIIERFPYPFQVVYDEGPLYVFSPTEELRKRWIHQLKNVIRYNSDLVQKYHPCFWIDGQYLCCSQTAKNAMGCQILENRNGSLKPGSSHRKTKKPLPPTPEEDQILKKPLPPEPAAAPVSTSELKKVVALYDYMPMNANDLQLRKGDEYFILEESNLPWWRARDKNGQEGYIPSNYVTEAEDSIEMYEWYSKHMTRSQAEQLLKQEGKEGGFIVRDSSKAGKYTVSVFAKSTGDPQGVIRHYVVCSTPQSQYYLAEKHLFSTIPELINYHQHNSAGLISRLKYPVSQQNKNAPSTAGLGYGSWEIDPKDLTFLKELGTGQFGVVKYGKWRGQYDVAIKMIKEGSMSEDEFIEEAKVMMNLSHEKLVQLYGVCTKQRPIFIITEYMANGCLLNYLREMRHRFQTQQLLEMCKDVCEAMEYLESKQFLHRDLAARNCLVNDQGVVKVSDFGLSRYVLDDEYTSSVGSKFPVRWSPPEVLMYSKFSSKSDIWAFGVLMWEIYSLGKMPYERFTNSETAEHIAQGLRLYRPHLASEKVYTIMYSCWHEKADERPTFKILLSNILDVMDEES

[2] = tested on: adenosine uptake into HeLa cells; assay: [3H]Adenosine uptake assay in HeLa cells; assay type: cell-based; conditions: compound range 10 μM to 0.032 nM
Outline: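 IC50 came from a 4-parameter fit of counts per second over a ten-point, 1:3 titration (final 10 µM down to […]). Compound was applied 30 min at ambient temperature in HBSS/5% FBS before a 500 nM [3H]adenosine solution was added; uptake ran 60 min, read by Cytostar-T proximity scintillation.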

[3] = Homo sapiens, HeLa, [3H]adenosine accumulation in HeLa cells, read-out: ADU inhibition IC50
[4] = [3H]adenosine accumulation in HeLa cells, read-out: ADU inhibition IC50
[5] = Homo sapiens, HeLa, read-out: ADU inhibition IC50 (nM), [3H]adenosine accumulation in HeLa cells

Compound	IC50 [1]	IC50 [2, 3]	IC50 [2, 4]	IC50 [2, 5]
C[C@@](O)(c1ccc(-c2nc([C@@H]3CC[C@H]4CCC(=O)N4C3)n3c(Cl)cnc(N)c23)cc1)c1cccc(CC(F)(F)F)c1 [Example 121, (6R,8aS)-6-[8-amino-5-chloro-1-(4-{(1R)-1-hydroxy-1-[3-(2,2,2-trifluoroethyl)phenyl]ethyl}phenyl)imidazo[1,5-a]pyrazin-3-yl]hexahydroindolizin-3(2H)-one]	0.18 nM	1940 nM	–	–
C[C@](O)(c1ccc(-c2nc([C@@H]3CC[C@H]4CCC(=O)N4C3)n3c(Cl)cnc(N)c23)cc1)c1cccc(CC(F)(F)F)c1 [Example 122, (6R,8aS)-6-[8-amino-5-chloro-1-(4-{(1S)-1-hydroxy-1-(3-(2,2,2-trifluoroethyl)phenyl]ethyl}phenyl)imidazo[1,5-a]pyrazin-3-yl]hexahydroindolizin-3(2H)-one]	2.7 nM	966 nM	–	–
CC(C)(c1cccc([C@@](C)(O)c2ccc(-c3nc([C@@H]4CC[C@H]5CCC(=O)N5C4)n4c(Cl)cnc(N)c34)cc2)c1)C(F)(F)F [Example 123, (6R,8aS)-6-[8-amino-5-chloro-1-(4-{(1S)-1-hydroxy-1-[3-(2,2,2-trifluoro-1,1-dimethylethyl)phenyl]ethyl}phenyl)imidazo[1,5-a]pyrazin-3-yl]hexahydroindolizin-3(2H)-one]	117 nM	945 nM	–	–
CC(C)(c1cccc([C@](C)(O)c2ccc(-c3nc([C@@H]4CC[C@H]5CCC(=O)N5C4)n4c(Cl)cnc(N)c34)cc2)c1)C(F)(F)F [Example 124, (6R,8aS)-6-[8-amino-5-chloro-1-(4-{(1R)-1-hydroxy-1-[3-(2,2,2-trifluoro-1,1-dimethylethyl)phenyl]ethyl}phenyl)imidazo[1,5-a]pyrazin-3-yl]hexahydroindolizin-3(2H)-one]	1.2 nM	1450 nM	–	–
Nc1nccn2c([C@@H]3CC[C@H]4CCC(=O)N4C3)nc(-c3ccc(C(O)c4cc(C(F)(F)F)ccc4F)cc3)c12 (stereo partly drawn) [Example 125, (6R,8aS)-6-(8-amino-1-(4-{[2-fluoro-5-(trifluoromethyl)phenyl] (hydroxy)methyl}phenyl)imidazo[1,5-a]pyrazin-3-yl]hexahydroindolizin-3(2H)-one]	824 nM	1180 nM	–	–
Nc1ncc(Cl)n2c([C@@H]3CC[C@H]4CCC(=O)N4C3)nc(-c3ccc(C(O)c4cc(C(F)(F)F)ccc4F)cc3)c12 (stereo partly drawn) [Example 126]	1000 nM	1070 nM	–	–
Cc1ccc(C(F)(F)F)cc1C(O)c1ccc(-c2nc([C@@H]3CC[C@H]4CCC(=O)N4C3)n3ccnc(N)c23)cc1 (stereo partly drawn) [Example 127, (6R,8aS)-6-[8-amino-1-(4-{hydroxy[2-methyl-5-(trifluoromethyl)phenyl]methyl}phenyl)imidazo [1,5-a]pyrazin-3-yl]hexahydroindolizin-3(2H)-one]	459 nM	2140 nM	–	–
Nc1nccn2c([C@@H]3CC[C@H]4CCC(=O)N4C3)nc(-c3ccc(C(O)c4cc(C(F)(F)F)ccc4F)cc3)c12 (stereo partly drawn) [Example 128]	12.4 nM	–	1470 nM	–
Nc1ncc(Cl)n2c([C@@H]3CC[C@H]4CCC(=O)N4C3)nc(-c3ccc(C(O)c4cc(C(F)(F)F)ccc4F)cc3)c12 (stereo partly drawn) [Example 129, (6R,8aS)-6-[8-amino-5-chloro-1-(4-{[2-fluoro-5-(trifluoromethyl)phenyl] (hydroxy)methyl}phenyl)imidazo[1,5-a]pyrazin-3-yl]hexahydroindolizin-3(2H)-one]	12.2 nM	–	1660 nM	–
Cc1ccc(C(F)(F)F)cc1C(O)c1ccc(-c2nc([C@@H]3CC[C@H]4CCC(=O)N4C3)n3ccnc(N)c23)cc1 (stereo partly drawn) [Example 130, (6R,8aS)-6-[8-amino-1-(4-{hydroxy[2-methyl-5-(trifluoromethyl)phenyl]methyl}phenyl)imidazo [1,5-a]pyrazin-3-yl]hexahydroindolizin-3(2H)-one]	12.7 nM	–	1440 nM	–
CC(F)(F)c1cccc([C@@](C)(O)c2ccc(-c3nc([C@@H]4CC[C@H]5CCC(=O)N5C4)n4ccnc(N)c34)cc2)c1 [Example 131, (6R,8aS)-6-[8-amino-1-(4-{(1S)-1-[3-(1,1-difluoroethyl)phenyl]-1-hydroxyethyl}phenyl)imidazo[1,5-a]pyrazin-3-yl]hexahydroindolizin-3(2H)-one]	64.4 nM	436 nM	–	–
CC(F)(F)c1cccc([C@](C)(O)c2ccc(-c3nc([C@@H]4CC[C@H]5CCC(=O)N5C4)n4ccnc(N)c34)cc2)c1 [Example 132, (6R,8aS)-6-[8-amino-1-(4-{(1R)-1-[3-(1,1-difluoroethyl)phenyl]-1-hydroxyethyl}phenyl)imidazo[1,5-a]pyrazin-3-yl]hexahydroindolizin-3(2H)-one]	0.3 nM	2950 nM	–	–
C[C@](O)(c1ccc(-c2nc([C@@H]3CC[C@H]4CCC(=O)N4C3)n3c(Cl)cnc(N)c23)cc1)c1cccc(C(F)F)c1 [Example 133, (6R,8aS)-6-[8-amino-5-chloro-1-(4-{(1S)-1-[3-(difluoromethyl)phenyl]-1-hydroxyethyl}phenyl)imidazo[1,5-a]pyrazin-3-yl]hexahydroindolizin-3(2H)-one]	118 nM	460 nM	–	–
C[C@@](O)(c1ccc(-c2nc([C@@H]3CC[C@H]4CCC(=O)N4C3)n3c(Cl)cnc(N)c23)cc1)c1cccc(C(F)F)c1 [Example 134, (6R,8aS)-6-[8-amino-5-chloro-1-(4-{(1R)-1-[3-(difluoromethyl)phenyl]-1-hydroxyethyl}phenyl)imidazo[1,5-a]|pyrazin-3-yl]hexahydroindolizin-3(2H)-one]	0.14 nM	2330 nM	–	–
C[C@](O)(c1ccc(-c2nc([C@@H]3CC[C@H]4CCC(=O)N4C3)n3ccnc(N)c23)cc1)c1cncc(C(F)(F)F)c1 [Example 135, (6R,8aS)-6-[8-amino-1-(4-{(1S)-1-hydroxy-1-[5-(trifluoromethyl)pyridin-3-yl]ethyl}phenyl)imidazo [1,5-a]pyrazin-3-yl]hexahydroindolizin-3(2H)-one]	1000 nM	973 nM	–	–
C[C@@](O)(c1ccc(-c2nc([C@@H]3CC[C@H]4CCC(=O)N4C3)n3ccnc(N)c23)cc1)c1cncc(C(F)(F)F)c1 [Example 136, (6R,8aS)-6-[8-amino-1-(4-{(1R)-1-hydroxy-1-[5-(trifluoromethyl)pyridin-3-yl]ethyl}phenyl)imidazo [1,5-a]pyrazin-3-yl]hexahydroindolizin-3(2H)-one]	87.6 nM	4620 nM	–	–
C[C@](O)(c1ccc(-c2nc([C@@H]3CC[C@H]4CCC(=O)N4C3)n3ccnc(N)c23)cc1)c1cccc(C(F)(F)F)n1 [Example 137, (6R,8aS)-6-[8-amino-1-(4-{(1S)-1-hydroxy-1-[6-(trifluoromethyl)pyridin-2-yl]ethyl}phenyl)imidazo [1,5-a]pyrazin-3-yl]hexahydroindolizin-3(2H)-one]	876 nM	865 nM	–	–
C[C@@](O)(c1ccc(-c2nc([C@@H]3CC[C@H]4CCC(=O)N4C3)n3ccnc(N)c23)cc1)c1cccc(C(F)(F)F)n1 [Example 138, (6R,8aS)-6-[8-amino-1-(4-{(1R)-1-hydroxy-1-[6-(trifluoromethyl)pyridin-2-yl]ethyl}phenyl)imidazo [1,5-a]pyrazin-3-yl]hexahydroindolizin-3(2H)-one]	25 nM	4760 nM	–	–
CC(F)(F)c1cccc([C@@](C)(O)c2ccc(-c3nc([C@@H]4CC[C@H]5CCC(=O)N5C4)n4c(Cl)cnc(N)c34)cc2)c1 [Example 139, (6R,8aS)-6-[8-amino-5-chloro-1-(4-{(1S)-1-[3-(1,1-difluoroethyl)phenyl]-1-hydroxyethyl}phenyl)imidazo[1,5-a]pyrazin-3-yl]hexahydroindolizin-3(2H)-one]	24.9 nM	–	–	449 nM
CC(F)(F)c1cccc([C@](C)(O)c2ccc(-c3nc([C@@H]4CC[C@H]5CCC(=O)N5C4)n4c(Cl)cnc(N)c34)cc2)c1 [Example 140]	0.22 nM	–	–	1200 nM
COc1cc([C@@](C)(O)c2cccc(C(F)(F)F)c2)ccc1-c1nc([C@@H]2CC[C@H]3CCC(=O)N3C2)n2ccnc(N)c12 [Example 141, (6R,8aS)-6-[8-amino-1-(4-{(1S)-1-hydroxy-1-[3-(trifluoromethyl)phenyl]ethyl}-2-methoxyphenyl)imidazo [1,5-a]pyrazin-3-yl]hexahydroindolizin-3(2H)-one]	93.8 nM	1980 nM	–	–
COc1cc([C@](C)(O)c2cccc(C(F)(F)F)c2)ccc1-c1nc([C@@H]2CC[C@H]3CCC(=O)N3C2)n2ccnc(N)c12 [Example 142, (6R,8aS)-6-[8-amino-1-(4-{(1R)-1-hydroxy-1-[3-(trifluoromethyl)phenyl]ethyl}-2-methoxyphenyl)imidazo [1,5-a]pyrazin-3-yl]hexahydroindolizin-3(2H)-one]	2 nM	7160 nM	–	–
CC(O)(c1ccc(-c2nc([C@@H]3CC[C@H]4CCC(=O)N4C3)n3ccnc(N)c23)cc1)C1CC2CCC1CC2 (stereo partly drawn) [Example 143, (6R,8aS)-6-{8-amino-1-[4-(1-bicyclo[2.2.2]oct-2-yl-1-hydroxyethyl)phenyl]imidazo[1,5-a]pyrazin-3-yl}hexahydroindolizin-3(2H)-one]	900 nM	–	839 nM	–
CC(O)(c1ccc(-c2nc([C@@H]3CC[C@H]4CCC(=O)N4C3)n3ccnc(N)c23)cc1)c1cccc(OC(F)F)c1 (stereo partly drawn) [Example 144, (6R,8aS)-6-[8-amino-1-(4-{1-[3-(difluoromethoxy)phenyl]-1-hydroxyethyl}phenyl)imidazo[1,5-a]pyrazin-3-yl]hexahydroindolizin-3(2H)-one]	67.6 nM	–	985 nM	–
